From PMC9457610, “Synthesis of thia-Michael-Type Adducts between Naphthoquinones and N-Acetyl-L-Cysteine and Their Biological Activity” (Molecules, 2022) come the findings set out here.

A value given as a limit tells only on which side of the number the result lay.

As a reminder, the IC50 is the concentration at which inhibition is half-maximal. As a reminder, the melting point is the temperature, or range, at which the solid turns liquid.

Data set [1] relates to U2OS. Description: MTT cell viability assay, U2OS. It counts as cell-based. As to conditions: Homo sapiens, 48 h treatment, 0.01 to 200 μM, ± SD, n.a. = not active. Here is the method: (§1) Molecules 8–12 were tested in vitro using the MTT assay against four cancer cell lines: HeLa, SH-SY5Y, SaOS2, and U2OS. […] Cytotoxic activities were expressed as IC50 values, i.e., the concentration of the substance that reduced cell viability by 50% (Table 2).
(§2) HeLa, SH-SY5Y, SaOS2, U2OS, and HDFa cell lines were purchased from American Type Culture Collection (ATCC; Manassas, VA, USA). HeLa, SaOS2, and U2OS cells were cultured in RPMI 1640 medium (Labtek Eurobio, Milan, Italy), while SH-SY5Y and HDFa cells were cultured in high-glucose DMEM (Labtek Eurobio, Milan, Italy), and both were supplemented with 10% FCS (Euroclone, Milan, Italy) and 2mM L-glutamine (Sigma-Aldrich, Milan, Italy), at 37 °C in a 5% CO2 atmosphere. The compounds were dissolved in DMSO in a 30–50 mM stock solution. In cell treatments, the final DMSO concentration never exceeded 0.1%.
(§3) Cells were seeded at 1.5 × 10^4 cells/well in a 96-well culture plastic plate (Orange Scientific, Braine-l’Alleud, Belgium), and after 24 h of growth, they were exposed to increasing concentrations of compounds (from 0.01 to 200 μM) solubilized in RPMI 1640 medium. After 48 h of treatment, the culture medium was replaced with 0.1 mL of 3-(4,5-dimethylthiazolyl-2)-2,5-diphenyltetrazolium bromide (MTT; Sigma-Aldrich, Milan, Italy) dissolved in PBS at the concentration of 0.2 mg/mL, and samples were incubated for 2 h at 37 °C. The formazan salt crystals formed were dissolved with 0.2 mL of isopropyl alcohol for 20 min. The absorbance at 570 nm was measured using a multi-well plate reader (Tecan, Männedorf, Switzerland), and data were analyzed using Prism GraphPad software and expressed as IC50.
On the technique in general: Tetrazolium dyes change colour on reduction, which living cells bring about.

Data set [2] concerns SH-SY5Y. Description: MTT cell viability assay, SH-SY5Y. Format: cell-based. As to conditions: Homo sapiens, 48 h treatment, 0.01 to 200 μM, ± SD, n.a. = not active. Here is the method:
as §1, §2, §3

The test system of data set [3] is HDFa. Nature of the data set: MTT cell viability assay, normal cell line HDFa. It counts as cell-based. As to conditions: Homo sapiens, normal dermal fibroblast, 48 h treatment, ± SD. Here is the method: as §1, §2, §3
Data set [4] has as its system SaOS2. Description: MTT cell viability assay, SaOS2. Format: cell-based. As to conditions: Homo sapiens, SAOS-2, 48 h treatment, 0.01 to 200 μM, ± SD, n.a. = not active. Here is the method:
as §1, §2, §3

In data set [5] the test system is SH-SY5Y cells. Nature of the data set: Cell-cycle analysis (PI stain, flow cytometry), SH-SY5Y. It counts as cell-based, human. To be noted: 5 μM. The method, then:
(§4) For this reason, we decided to analyze the effects on proliferation by treating the cells only with 8. Next, we explored the effect of 5 μM 8 on cell-cycle distribution in HeLa, U2OS, and SH-SY5Y cancer cells using PI stain followed by flow cytometry. Cells were exposed to the compound for 24 or 48 h prior to processing and analysis.
(§5) The effects on the HeLa and U2OS cell cycles were studied after 24 or 48 h of treatment with 5 μM 8. Cells were detached with 0.11% trypsin, washed in PBS and centrifuged. The pellet was resuspended in 0.01% Nonidet P-40, 10 μg/mL RNase, 0.1% sodium citrate, and 50 μg/mL PI, for 30 min at room temperature in the dark. Flow cytometric analyses were performed as previously described.
A general note: Flow cytometry measures light scatter and fluorescence of single cells or particles in a stream.

The test system of data set [6] is U2OS cells. Description: Cell-cycle analysis (PI stain, flow cytometry), U2OS. Format: cell-based, human. To be noted: 5 μM. Here is the method: as §4, §5
Data set [7] deals with HeLa. Nature of the data set: MTT cell viability assay, HeLa. Format: cell-based. To be noted: Homo sapiens, 48 h treatment, 0.01 to 200 μM, ± SD, n.a. = not active. The method, then: as §1, §2, §3
In data set [8] the test system is HeLa cells. Description: Cell-cycle analysis (PI stain, flow cytometry), HeLa. It counts as cell-based, human. As to conditions: 5 μM. Here is the method:
as §4, §5

In data set [9] the test system is HeLa, SH-SY5Y, SaOS2, and U2OS. Nature of the data set: MTT cell viability assay, all malignant cell lines tested (summary). Format: cell-based, human. As to conditions: summary over HeLa, 48 h; for IC50: Homo sapiens, read-out: IC50 values against all the malignant cell lines tested. The method, then:
as §1, §2, §3

Data set [10] relates to U2OS cells. Nature of the data set: Intracellular ROS level (DCFDA), U2OS. It counts as cell-based, human. As to conditions: 5 μM 8 or 30 μM 11; for increase in ROS formation with respect to control: 1 h; for ROS production: 48 h. Here is the method:
(§6) To further explore and establish a direct relationship between 8 or 11 and ROS, DCFH-DA staining was applied to HeLa, U2OS, and SH-SY5Y cells treated for 1 h and 48 h. […] Indeed, in HeLa cells, 8 induced an increase in ROS formation of 1.14 ± 0.042, while in U2OS and SH-SY5Y cells, the increases were 1.30 ± 0.13-fold and 1.51 ± 0.16-fold with respect to control, with p < 0.0001, p < 0.0005, and p < 0.0024, respectively. In the same way, 11 induced increases in ROS formation in HeLa cells of 1.27 ± 0.16, while in U2OS and SH-SY5Y cells, the increases were 1.62 ± 0.11-fold and 1.61 ± 0.14-fold with respect to control, with p < 0.0049, p < 0.0001, and p < 0.0056, respectively. Moreover, it is important to note that both compounds 8 and 11 induced a greater formation of ROS in U2OS and SH-SY5Y cells than in HeLa cells, as shown in Figure 5A.
(§7) Oxidative stress was measured in intact cells using an ROS indicator, 2′,7′-dichlorodihydrofluorescein diacetate (DCFDA; Thermo Fisher Scientific, Waltham, MA, USA). HeLa, U2OS, and SH-SY5Y cells were seeded in 96-well plates at 1.5 × 10^4 cells/well (Optiplate, Perkin Elmer, Milan, Italy), and after 24 h to allow adhesion, HeLa and SH-SY5Y cells were incubated with 5 μM GA 462 or 20 μM SM71, while U2OS were treated with 5 μM 8 or 30 μM 11, dissolved in complete medium for 1 or 48 h at 37 °C in 5% CO2 atmosphere. After this time, cells were washed with PBS and treated with 10 μM DCFDA in culture medium for 30 min. Finally, cells were washed again with PBS and the fluorescence value in each well was measured (λexc = 488 nm; λem = 530 nm) with a plate reader (Tecan, Männedorf, Switzerland). Fluorescence emission was normalized to protein content measured using the Bradford method.

In data set [11] the test system is SH-SY5Y cells. Nature of the data set: Intracellular ROS level (DCFDA), SH-SY5Y. To be noted: for increase in ROS formation with respect to control: 1 h, 5 μM 8 (GA 462) or 20 μM 11 (SM71); for ROS production: 48 h, 5 μM 8 or 20 μM 11. Format: cell-based, human. The method, then:
as §6, §7

Data set [12] concerns HeLa cells. Description: Intracellular ROS level (DCFDA), HeLa. Format: cell-based, human. Here is the method: as §6, §7
[13] abbreviates: 1 h, 5 μM 8 (GA 462) or 20 μM 11 (SM71).

Consider `CC(=O)N[C@@H](CSC1=CC(=O)c2ccccc2C1=O)C(=O)O` [Compound 8, N-acetyl-S-(1,4-dioxo-1,4-dihydronaphthalen-2-yl)-L-cysteine], for which the concentration for half-maximal inhibition (IC50) in data set [1] was 1810 ± 7 nM; in [2], 870 ± 3 nM; in data set [3], 7430 ± 20 nM; in data set [4], 1670 ± 10 nM; in [7], 540 ± 50 nM; in [9], 500 to 1810 nM. For the same compound, the “increase in S-phase cells with respect to control” value is given as 1.1% in data set [5] (24 h) and 1.3% in data set [6] (24 h). The “accumulation of cells in the S phase with respect to control” value in data set [5] (48 h) is 1.3%; in data set [6] (48 h), 1.1%. For the same compound, the “increase in the number of G0/G1-phase cells with respect to control” value in [8] (24 h) was found to be 1.3%. For the same compound, the “increase in the number of cells in the S phase with respect to control” value in data set [8] (48 h) was 1.2%. The “increase in ROS formation with respect to control” value (“increase in ROS formation” for short) in data set [10] turned out to be 1.30 ± 0.13 fold; in data set [11], 1.51 ± 0.16 fold; in data set [12] (setting [13]), 1.14 ± 0.042 fold; in data set [12] (48 h, 5 μM 8), 2.28 ± 0.47 fold. The ROS production entry in [10] and in [11] was “no ROS production” each time.
In the case of `CC(=O)N[C@@H](CSC1=C(C)C(=O)c2ccccc2C1=O)C(=O)O` [Compound 9, N-acetyl-S-(3-methyl-1,4-dioxo-1,4-dihydronaphthalen-2-yl)-L-cysteine], the melting point fell in the range of 206.9 to 208.3 °C. The compound further displayed a half-inhibitory concentration (IC50) in [1] of 510 ± 60 nM. Moreover, the midpoint of inhibition in data set [2], the IC50, lay at 960 ± 60 nM. In data set [3], this compound had an IC50 of 3870 ± 10 nM. Also, the 50% inhibitory concentration (IC50) in data set [4] worked out at 590 ± 40 nM. The same compound came in with an IC50 in [7] of 500 ± 80 nM. Moreover, in [9], the half-inhibitory concentration (IC50) lay within 500 to 1810 nM.
In the case of `CC(=O)N[C@@H](CSC1=C(C)C(=O)c2cccc(O)c2C1=O)C(=O)O` [Compound 10, N-acetyl-S-(8-hydroxy-3-methyl-1,4-dioxo-1,4-dihydronaphthalen-2-yl)-L-cysteine], the melting point was > 193 °C (dec.). Also, in data set [9], the “IC50 values against all the malignant cell lines tested” value was “inactive”.
`CC(=O)N[C@@H](CSC1=CC(=O)c2c(O)cccc2C1=O)C(=O)O` [Compound 11, N-acetyl-S-(5-hydroxy-1,4-dioxo-1,4-dihydronaphthalen-2-yl)-L-cysteine] showed a melting point of 209.8 to 211.7 °C. Further, the IC50 in [1] was 30400 ± 5 nM. Moreover, the 50% inhibitory concentration (IC50) in data set [2] was determined as 11400 ± 1 nM. Besides, in data set [3], it took 6880 ± 50 nM to reach half-maximal inhibition (IC50). Also, in data set [4], the 50% inhibitory concentration (IC50) is 25900 ± 50 nM. In [7], this compound showed a 50% inhibitory concentration (IC50) of 13200 ± 50 nM. Further, in [10], the “increase in ROS formation” value turned out to be 1.62 ± 0.11 fold and the ROS production entry is on record as “no ROS production”. Further, in [11], the “increase in ROS formation” value is 1.61 ± 0.14 fold and the ROS production result was “no ROS production”. Besides, the “increase in ROS formation” value in data set [12] (setting [13]) was 1.27 ± 0.16 fold.
Turning to `CC(=O)N[C@@H](CSC1=CC(=O)c2c(O)ccc(O)c2C1=O)C(=O)O` [Compound 12, N-acetyl-S-(5,8-dihydroxy-1,4-dioxo-1,4-dihydronaphtalen-2-yl)-L-cysteine], the melting point lay within 238.2 to 239.9 °C. The compound also gave an IC50 in data set [1] of 1650 ± 30 nM. The concentration for half-maximal inhibition (IC50) in data set [2] turned out to be 630 ± 40 nM. For the same compound, inhibition in data set [3] was half-maximal at 830 ± 7 nM (IC50). The compound further yielded an IC50 in data set [4] of 1560 ± 30 nM. Moreover, the IC50 in data set [7] stood at 1040 ± 8 nM. Also, in data set [9], the half-inhibitory concentration (IC50) was 500 to 1810 nM.
